Key:
[1] = rats, high lactisole concentrations added to the diet; considered statistically insignificant; cited from earlier work
[2] = Triglycerides in blood plasma of obese marmosets treated with coated lactisole pills; assay type: in vivo, common marmoset monkeys (Callithrix jacchus); design: Triglycerides in blood plasma: unit not given here
Experimental: 5 mm diameter coated pill were made, comprising 20 mg tablettose, 26.5 mg Avicell PH 102, 2.5 mg Crospovidone and 1 mg Mg-stearate for the placebo, and 35 mg sodium 2-(4-methoxyphenoxy)propionate (Endeavour speciality chemicals), 11.5 mg Avicel PH 102, 2.5 mg Crospovidone and 1 mg Mg-stearate for the Lactisole pills. Pills were coated in a fluidized bed (GCPG1, Glatt), at a spray rate of 4 g/min, atomic pressure 1.5 bar, inlet air temperature 36° C., product temperature 31° C. at maximal air velocity. The composition of the coating solution was 11.4% Eudragit® EPO(Röhm Pharma), 1.14% Sodium lauryl sulphate (α-pharma), 4% Mg-stearate (α-pharma), 1.72% stearic acid (α-pharma) and water ad 100%.
Adult male and female common marmoset monkeys (Callithrix jacchus) were from the breeding colony of the German Primate Center (DPZ), Göttingen, Germany. Animals were housed in pairs in air-conditioned facilities on a 12 hr/12: HR light/dark cycle.
Animals were fed two times a day: mash feeding, containing 15 g of test diet in the morning, and 60 g of test diet in the afternoon (value per animal). Each time before feeding, the animals received two pills (either placebo or lactisole) in nutrical gel.
Three groups of marmosets were compared: 11 obese animals treated with lactisole, 11 obese animals receiving placebo and 12 lean control animals receiving placebo. The experiment is carried out for 10 weeks, and bodyweight, glycated hemoglobin HbA1c, and glucose in blood plasma is measured. […]
Obese animals were treated for 7 weeks with lactisole (70 mg, two times a day, before feeding). Control obese and lean animals received placebo pills.

[3] = Effect of lactisole on body weight (applicant's general finding); assay type: in vivo; settings: also when encapsulated and/or coated to avoid contact with the taste receptor of the mouth
SGLT1 [4] = experiment: SGLT1 protein expression (western blot of luminal membrane vesicles) in wild-type mice on low carbohydrate plus sucralose diet; assay type: in vivo, mouse; settings: 2 weeks
Experimental: (§1) Male CD-1 and C57BL/6 mice, six weeks old, from Charles River Laboratories were used. The α-gustducin knock out mouse was described by Wong et al. (1996); the T1R3 knock out mouse was described by Damak et al. 2003).
(§2) High and low carbohydrate diets were resp. TestDiet® 5810 and TestDiet® 5787-9. For the sucralose test, the low carbohydrate diet was supplemented with sucralose (1,6-dichloro-1,6-dideoxy-beta-D-fructofuranosyl-4-chloro-4-deoxy-alpha-galactopyranoside) at 2 mM.
(§3) Animals were killed by concussion followed by cervical dislocation. The entire small intestine was removed and flushed with ice-cold 0.9% NaCl, opened longitudinally, rinsed in saline and mucous removed by blotting. The small intestine was then divided into proximal, mid and distal sections and the mucosa removed by scraping. Mucosal scrapings were frozen immediately in liquid nitrogen and stored at −80° C. until use. […]
(§4) Second, groups of wild-type and T1R3 and α-gustducin KO mice were placed on each of three iso-caloric diets a) low carbohydrate, b) high carbohydrate, and c) low carbohydrate+artificial sweetener (sucralose), for two weeks. After this time the mice were killed and the small intestines were removed, divided into proximal, mid and distal regions, and SGLT1 expression, at protein and mRNA levels, were measured in each.

SGLT1 [5] = experiment: SGLT1 expression in T1R3 knock-out mice on low carbohydrate plus sucralose diet; assay type: in vivo, mouse; settings: T1R3 KO mice, 2 weeks
Experimental: as §1, §2, §3, §4

[6] = Body weight gain and food intake of mice on low carbohydrate diet with or without sucralose; assay type: in vivo, mice (C57BL/6); settings: C57BL/6 mice, low carbohydrate diet with 0.3% sucralose, ad libitum, 12 weeks
Source text: induction of weight increase in mice by the use of an artificial sweetener Two groups of mice (C57BL/6) were fed ad libitum with a low carbohydrate diet (1.9% remaining carbohydrate, Purina), with or without 0.3% sucralose (Tate and Lyle). Food consumption and body weight was followed for a period of 12 weeks.

SGLT1 [7] = experiment: SGLT1 expression in α-gustducin knock-out mice on low carbohydrate plus sucralose diet; assay type: in vivo, mouse; settings: α-gustducin KO mice, 2 weeks
Experimental: as §1, §2, §3, §4

[8] = male and female dogs, diet with various concentrations of sucralose; cited from earlier work
SGLT1 [9] = experiment: SGLT1 mRNA levels (real-time PCR) in small intestine of wild-type mice on low carbohydrate plus sucralose diet; assay type: in vivo, mouse; settings: proximal and mid intestinal regions, sucralose (2 mM) added to low carbohydrate diet, 2 weeks, qPCR
Experimental: as §1, §2, §3, §4

Compound | body-weight gain [1] | Triglycerides in blood plasma ([2]; obese marmosets N = 11, high carb feeding week 0, week −4 with respect to lactisole treatment (before treatment)) | Triglycerides in blood plasma ([2]; obese marmosets N = 11, high carb feeding week 3, week −1 with respect to lactisole treatment (before treatment)) | Triglycerides in blood plasma ([2]; obese marmosets N = 11, high carb feeding week 5, week 1 of lactisole treatment, 70 mg two times a day) | Triglycerides in blood plasma ([2]; obese marmosets N = 11, high carb feeding week 7, week 3 of lactisole treatment, 70 mg two times a day) | Triglycerides in blood plasma ([2]; obese marmosets N = 11, high carb feeding week 9, week 5 of lactisole treatment, 70 mg two times a day) | Triglycerides in blood plasma ([2]; obese marmosets N = 11, high carb feeding week 11, week 7 of lactisole treatment, 70 mg two times a day) | serum triglyceride level, course in treated obese animals ([2]; obese marmosets, 7 weeks lactisole 70 mg two times a day before feeding) | effect on body weight [3] | SGLT1 protein expression (SGLT1 [4]) | SGLT1 mRNA response (SGLT1 [5]) | SGLT1 protein response (SGLT1 [5]) | average increase in body weight gain versus control group [6] [%] | food intake higher than control group [6] [%] | SGLT1 mRNA response (SGLT1 [7]) | SGLT1 protein response (SGLT1 [7]) | body weight gain and final body weight [8] | increase of SGLT1 mRNA (SGLT1 [9])
COc1ccc(OC(C)C(=O)O)cc1 (stereo not drawn) [Lactisole, sodium 2-(4-methoxyphenoxy) propanoate] | reduction in body-weight gain | 2.75 | 2.24 | 1.82 | 1.85 | 1.57 | 1.52 | decreasing to the level of the lean control | body weight loss |  |  |  |  |  |  |  |  | 
OC[C@H]1O[C@H](O[C@]2(CCl)O[C@H](CCl)[C@@H](O)[C@@H]2O)[C@H](O)[C@@H](O)[C@H]1Cl [sucralose, 1,6-dichloro-1,6-dideoxy-beta-D-fructofuranosyl-4-chloro-4-deoxy-alpha-galactopyranoside] |  |  |  |  |  |  |  |  |  | increased | no increase | no increase | 42 | 7.5 | no increase | no increase | gaining more rapidly body weight and reached a higher final body weight level | 30-70%

Reference: patent US20090170949A1, “Method To Control Body Weight” (priority 2006, published 2009)
